Results taken from publication PMC11740726 (PNAS Nexus, 2025).
Like-named read-outs stand apart in the source and are kept apart here.

Assays:
[1] = tested on: VeroE6 cells
[2] = tested on: SARS-CoV-2^WK-521; experiment: microbe, parasite or virus in culture; format: cell-based
[3] = in vitro; conditions: African green monkey
[4] = tested on: TA1535
[5] = tested on: SARS-CoV-2^XBB1.5; set-up: species or system B6.Cg-Tg(K18-hACE2)2-Prlmn/J-transgenic mice; conditions: mouse, in vivo
[6] = tested on: SARS-CoV-2^BQ.1.1; experiment: microbe, parasite or virus in culture; format: cell-based; conditions: Severe acute respiratory syndrome coronavirus 2, read-out: SARS-CoV-2^BQ.1.1 in HeLa^hACE2-TMPRSS2 cells EC50
[7] = target: SARS-CoV-2 M^pro (Severe acute respiratory syndrome coronavirus 2, UniProt P0DTD1); experiment: SARS-CoV-2 M^pro enzyme assay (cell-free, fluorogenic substrate); format: biochemical; conditions: authentic M^pro; mean ± 1 SD, three assays
[8] = tested on: TA1537; conditions: Salmonella typhimurium
[9] = tested on: WP2 uvrA; conditions: Escherichia coli
[10] = tested on: TA100; conditions: Salmonella typhimurium
[11] = tested on: TA98; conditions: Salmonella typhimurium
[12] = in vivo; conditions: PXB (human liver-chimeric), mouse, po, 10 mg/kg
[13] = tested on: SARS-CoV-2^Omicron EG.5.1; experiment: microbe, parasite or virus in culture; format: cell-based; conditions: Severe acute respiratory syndrome coronavirus 2, read-out: anti-SARS-CoV-2^Omicron EG.5.1 activity EC50 in primary human nasal epithelial (HNEp) cells
[14] = tested on: SARS-CoV-2^WK-521; experiment: microbe, parasite or virus in culture; format: cell-based; conditions: Severe acute respiratory syndrome coronavirus 2, read-out: EC50, SARS-CoV-2^WK-521, HeLa^hACE2-TMPRSS2
[15] = tested on: SARS-CoV-2 Omicron XBB.1.5; experiment: microbe, parasite or virus in culture; format: cell-based; conditions: for EC50: Severe acute respiratory syndrome coronavirus 2, read-out: EC50 in the presence of 1 mg/mL human AAG
[16] = in vivo; conditions: ICR, mouse, po, 10 mg/kg
[17] = tested on: HeLa^hACE2-TMPRSS2 cells
[18] = tested on: four Salmonella typhimurium strains (TA100, TA1535, TA98, TA1537) and one Escherichia coli strain (WP2 uvrA)
[19] = tested on: primary human nasal epithelial cells
[20] = tested on: human calpain; format: biochemical
[21] = target: human cathepsin L (Homo sapiens, UniProt P07711); experiment: biochemical
Chain of human cathepsin L (P07711 114-333): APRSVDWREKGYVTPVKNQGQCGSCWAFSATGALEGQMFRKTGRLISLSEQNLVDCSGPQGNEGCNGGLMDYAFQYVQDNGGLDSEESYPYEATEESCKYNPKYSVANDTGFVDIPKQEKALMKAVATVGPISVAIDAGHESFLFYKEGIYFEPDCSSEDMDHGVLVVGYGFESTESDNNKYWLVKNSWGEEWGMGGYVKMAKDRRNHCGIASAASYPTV

[22] = Severe acute respiratory syndrome coronavirus 2, Vero C1008, read-out: SARS-CoV-2^WK-521 in VeroE6 cells EC50
[23] = read-out: EC50 against SARS-CoV-2^WK-521 in VeroE6 cells in the presence of CP100356
[24] = Severe acute respiratory syndrome coronavirus 2, Vero C1008, read-out: EC50, SARS-CoV-2^WK-521, VeroE6 +2μM CP-100356
[25] = Severe acute respiratory syndrome coronavirus 2, Vero C1008, read-out: EC50, SARS-CoV-2^WK-521, VeroE6

CC(C)(C)[C@H](NC(=O)C(F)(F)F)C(=O)N1C[C@H]2[C@@H]([C@H]1C(=O)N[C@@H](C[C@@H]1CCNC1=O)C(=O)c1nc3c(F)cccc3s1)C2(C)C [TKB245]
intracellular concentrations in VeroE6 cells [1]: higher than those of nirmatrelvir | EC50 [2, 22]: 0.02 ± 0.007 µM | EC50 [2, 23]: 0.0035 µM | CC50 [3]: > 100 µM

[N-]=[N+]=[N-].[Na+] [NaN3, SodiumAzide]
Number of colonies / plate (positive control) [4]: 29.3 ± 9.1 colonies / plate

Nirmatrelvir + Ritonavir
Lungs Virus titer [5]: 5.2 Log10(PFU/g) | Nasal turbinates Virus titer [5]: 2.4 Log10(PFU/g)

CC(C)C(=O)OC[C@H]1O[C@@H](n2ccc(NO)nc2=O)[C@H](O)[C@@H]1O [molnupiravir, reference compound]
EC50 [2, 24]: 0.84 µM

CC(C)(C)[C@H](NC(=O)C(F)(F)F)C(=O)N1C[C@H]2[C@@H]([C@H]1C(=O)N[C@@H](C[C@@H]1CCNC1=O)C(=O)c1nc3cccc(F)c3s1)C2(C)C [TKB252]
EC50 [6]: 0.057 ± 0.023 µM | IC50 [7]: 0.2 ± 0.05 µM | EC50 [2, 22]: 0.062 ± 0.026 µM | CC50 at 3 days [3]: > 100 µM

COc1ccc2nc3cc(Cl)ccc3c(NCCCNCCCl)c2c1 [ICR-191, 2-Methoxy-6-chloro-9-[3-(2-chloroethyl)-aminopropylamino] acridine·2HCl]
Number of colonies / plate (positive control) [8]: 37.3± 2.5 colonies / plate

Cn1cnc(Cn2c(=O)[nH]/c(=N\c3cc4cn(C)nc4cc3Cl)n(Cc3cc(F)c(F)cc3F)c2=O)n1 [Ensitrelvir, reference compound]
EC50 [2, 24]: 0.03 µM | CC50 [3]: > 100 µM

Nc1ccc2cc3ccccc3cc2c1 [Compound 2AA, 2-Aminoanthracene]
Number of colonies / plate (positive control) ([4]; Salmonella typhimurium): 15.3 ± 1.2 colonies / plate | Number of colonies / plate (positive control) [9]: 49.0± 7.9 colonies / plate

NC(=O)C(=Cc1ccc([N+](=O)[O-])o1)c1ccco1 [AF-2, 2-(2-Furyl)-3-(5-nitro-2-furyl)acrylamide]
Number of colonies / plate (positive control) [10]: 29.0 ± 4. colonies / plate | Number of colonies / plate (positive control) [11]: 22.7 ± 3.1 colonies / plate | Number of colonies / plate (positive control) [9]: 10.7± 3.1 colonies / plate

CC(C)(C)[C@H](NC(=O)C(F)(F)F)C(=O)N1C[C@H]2[C@@H]([C@H]1C(=O)N[C@H](C#N)C[C@@H]1CCNC1=O)C2(C)C [Nirmatrelvir, reference compound]
half-life [12]: 1.43 h | EC50 [13]: 11.1 µM | EC50 [6]: 0.051 ± 0.016 µM | EC50 [2, 25]: 1.14 ± 0.19 µM | EC50 [2, 24]: 0.02 ± 0.01 µM | EC50 [2, 22]: 0.77 ± 0.18 µM | EC50 [2, 23]: 0.0363 µM | EC50 [14]: 0.02 µM | effect of 5 mg/mL human AAG on antiviral activity [15]: further reduced the activity | EC50 [15]: 0.16 µM | CC50 [3]: > 100 µM

CC(C)(C)[C@H](NC(=O)C(F)(F)F)C(=O)N1C[C@H]2[C@@H]([C@H]1C(=O)N[C@@H](C[C@@H]1CCNC1=O)C(=O)c1nc3ccc(F)cc3s1)C2(C)C [TKB273]
EC50 [6]: 0.114 ± 0.093 µM | IC50 [7]: 0.0089 ± 0.0041 µM | EC50 [2, 22]: 0.043 ± 0.024 µM | CC50 at 3 days [3]: > 100 µM

CC(C)(C)[C@H](NC(=O)C(F)(F)F)C(=O)N1C[C@H]2[C@@H]([C@H]1C(=O)N[C@@H](C[C@@H]1CCNC1=O)C(=O)c1nc3cc(F)ccc3s1)C2(C)C [TKB272]
half-life [12]: 3.12 h | EC50 [13]: 0.031 µM | half-life [16]: 3.37 h | intracellular concentrations in HeLa^hACE2-TMPRSS2 cells [17]: greater than those of nirmatrelvir | intracellular concentrations in VeroE6 cells [1]: higher than those of nirmatrelvir | EC50 [6]: 0.0026 ± 0.001 µM | genotoxicity in the micro-Ames test [18]: no apparent genotoxicity | growth inhibition of bacterial strains in µAmes test [18]: did not inhibit the growth of bacterial strains employed | increase of revertant colonies compared with negative control in µAmes test [18]: did not increase the number of revertant colonies more than twice | Lungs Virus titer [5]: 5.1 Log10(PFU/g) | Nasal turbinates Virus titer [5]: 3.2 Log10(PFU/g) | intracellular concentrations in human primary nasal epithelial cells [19]: comparable to nirmatrelvir | IC50 [20]: > 2 µM | inhibition of human calpain (target specificity) [20]: none of the human cysteine enzymes, cathepsin L or calpain, were appreciably inhibited | IC50 [21]: > 16 µM | inhibition of human cathepsin L (target specificity) [21]: none of the human cysteine enzymes, cathepsin L or calpain, were appreciably inhibited | EC50 [2, 25]: 0.0158 ± 0.0089 µM | EC50 [2, 24]: 0.001 ± 0.001 µM | EC50 [2, 22]: 0.007 ± 0.001 µM | EC50 [2, 23]: 0.0004 µM | EC50 [14]: 0.0029 µM | effect of 5 mg/mL human AAG on antiviral activity [15]: further reduced the activity | EC50 [15]: 0.03 µM | CC50 [3]: 98 ± 2.1 µM
